Where “and” joins values, the source holds several entries; their conditions need not be identical. Equal entries are not always repeated. Where two headings read alike, the source gives them in different places.
How the values were obtained:
[1] = Plasma levels of J147 at the time of surgery; type: in vivo, Wistar rats; details: absence of an appropriate peak taken as zero
Procedure: Male Wistar rats (˜350 g) were randomly divided into 4 experimental groups; non-surgery; control abdominal surgery; surgery+acute J147 treatment (7 mg/rat by gavage, 4-5 hours before surgery); surgery+chronic J147 (500 mg/kg food, 1 week before surgery until the end of the study). Timed blood samples were collected. Days 9-11 post surgery, general behavior (Open field: OF) and cognitive performance (Novel Object/Novel Location Recognition: NOR/NLR; Morris Water Maze: MWM) were tested. Day 14, rats were sacrificed and blood and brain tissue were collected for further analyses. (Neuro)inflammation was examined by circulating cytokine levels and microglia activation in the brain.
One week before surgery, chronic treatment J147 treatment started and continued until the end of the experiment. The day of surgery, rats for acute treatment received their J147 (4-5 hours before surgery) by gavage, while the designated control rats received vehicle gavage. Rats were subjected to abdominal surgery, and allowed to recover. After that rats were housed individually. […] The first week post-surgery, rats were weighed daily and food intake was measured. […]
For chronic oral treatment, J147 was added to the food (Teklad 2018, Envigo) at a concentration of 500 mg/kg. […] After surgery food intake was measured daily during the last hour of the light phase. […]

[2] = Brain levels of J147 after oral administration in Basis suspension; type: in vivo, Adult Wister Rats; details: oral 20 mg/kg in Basis suspension, PO_B satellite
Procedure: (§1) Plasma samples obtained during surgery in J147-treated rats and 3 control rats were measured for circulating levels of J147. Results of pharmacokinetic measures of both plasma and brain levels of J147 in rats following oral administration of J147 in basis suspension at 20 mg/kg and also following intravascular administration at 5 mg/kg are shown in Table 2A-C below. When taking the absence of an appropriate peak as zero, mean concentration is 0 ng/ml in controls, 3.103 ng/ml in acutely treated rats and 0.233 ng/ml in chronically treated rats. J147 levels in food were verified as well (467 mg/kg). […] During the first 10 days after surgery and individual housing, rats on the diet ate on average 20±1 g, which was similar to the 20±1 g in surgery with control food and 23±1 g in non-surgery controls, verifying the anticipated intake of 10 mg J147/rat/day and further supporting no preference or aversion for the diet food.
(§2) Tables 2A-2B. Pharmacokinetic Measures of Plasma and Brain Levels of J147 Formulated in Basis Suspension Administered Orally to Adult Wister Rats at 20mg/kg.
• All of the brain samples were added with […] by brain weight (g) to PBS volume (mL) ratio 1:3 for homogenization. • The actual concentration (ng/g) is the detected value (ng/mL) multiplied by 4. • BLOQ: Below limit of quantitation (LLOQ: 2 ng/g) • NA: not available

[3] = Plasma levels of J147 after oral administration in Basis suspension; type: in vivo, Adult Wister Rats; details: oral 20 mg/kg in Basis suspension
Procedure: as §1, §2

Question: For `COc1cccc(/C=N/N(C(=O)C(F)(F)F)c2ccc(C)cc2C)c1` [J147], which “mean concentration of J147 in plasma during surgery” value ([1]; acute J147, 7 mg/rat by gavage 4-5 hours before surgery) is on record?
Answer: Its value is 3.103 ng/mL.

Question: What about the concentration at 1 week ([1]; male, Wistar, rat, plasma, oral, chronic J147, 500 mg/kg food from 1 week before surgery, read-out: mean concentration of J147 in plasma during surgery) of the same compound?
Answer: Its concentration at 1 week is 0.233 ng/mL.

Question: What about the concentration at 0.25 h ([2]; Wistar, rat, brain homogenate, po, 20 mg/kg, brain homogenate 1:3, Group 1, Group 2, LLOQ 2 ng/g, read-out: Brain Detected Conc.) of the same compound?
Answer: Its concentration at 0.25 h is 0.736 ng/mL.

Question: What about the concentration at 0.5 h ([2]; Wistar, rat, brain homogenate, po, 20 mg/kg, 0.5 h, brain homogenate 1:3, Group 1, Group 2, LLOQ 2 ng/g, read-out: Brain Detected Conc.) of the same compound?
Answer: The concentration at 0.5 h was 1.14 ng/mL.

Question: And the concentration at 1 h ([2]; Wistar, rat, brain homogenate, po, 20 mg/kg, 1 h, brain homogenate 1:3, Group 1, Group 2, LLOQ 2 ng/g, read-out: Brain Detected Conc.)?
Answer: Its concentration at 1 h is 7.01 ng/mL.

Question: And the concentration at 8 h ([2]; Wistar, rat, brain homogenate, po, 20 mg/kg, 8 h, brain homogenate 1:3, Group 1, Group 2, LLOQ 2 ng/g, read-out: Brain Detected Conc.)?
Answer: Its concentration at 8 h is 0.831 ng/mL.

Question: What about the concentration at 0.25 h ([2]; Wistar, rat, brain, po, 20 mg/kg, detected value multiplied by 4, Group 1, Group 2, read-out: Brain Actual Conc.) of the same compound?
Answer: Its concentration at 0.25 h is 2.94 ng/g.

Question: And the concentration at 0.5 h ([2]; Wistar, rat, brain, po, 20 mg/kg, 0.5 h, detected value multiplied by 4, Group 1, Group 2, read-out: Brain Actual Conc.)?
Answer: Its concentration at 0.5 h is 4.56 ng/g.

Question: What about the concentration at 0.5 h ([2]; Wistar, rat, brain, po, 20 mg/kg, 0.5 h, mean of Group 1 and 2, read-out: Brain Actual Conc. Mean) of the same compound?
Answer: Its concentration at 0.5 h is 3.94 ng/g.

Question: And the concentration at 1 h ([2]; Wistar, rat, brain, po, 20 mg/kg, 1 h, detected value multiplied by 4, Group 1, Group 2, read-out: Brain Actual Conc.)?
Answer: Its concentration at 1 h is 28 ng/g.

Question: And the concentration at 1 h ([2]; Wistar, rat, brain, po, 20 mg/kg, 1 h, mean of Group 1 and 2, read-out: Brain Actual Conc. Mean)?
Answer: The concentration at 1 h was 23.7 ng/g.

Question: And the concentration at 2 h ([2]; Wistar, rat, brain, po, 20 mg/kg, 2 h, mean of Group 1 and 2, read-out: Brain Actual Conc. Mean)?
Answer: The concentration at 2 h was 28 ng/g.

Question: And the concentration at 4 h ([2]; Wistar, rat, brain, po, 20 mg/kg, 4 h, mean of Group 1 and 2, read-out: Brain Actual Conc. Mean)?
Answer: The concentration at 4 h was 20.6 ng/g.

Question: What about the concentration at 8 h ([2]; Wistar, rat, brain, po, 20 mg/kg, 8 h, detected value multiplied by 4, Group 1, Group 2, read-out: Brain Actual Conc.) of the same compound?
Answer: Its concentration at 8 h is 3.32 ng/g.

Question: And the concentration at 8 h ([2]; Wistar, rat, brain, po, 20 mg/kg, 8 h, mean of Group 1 and 2, read-out: Brain Actual Conc. Mean)?
Answer: Its concentration at 8 h is 3.26 ng/g.

Question: What about the “Brain Detected Conc.” value ([2]; 0.5 h, brain homogenate 1:3, Group 1, Group 2, LLOQ 2 ng/g, 20 mg/kg) of the same compound?
Answer: Its value is 0.830 ng/mL.

Question: What about the “Brain Actual Conc.” value ([2]; 0.5 h, detected value multiplied by 4, Group 1, Group 2, 20 mg/kg) of the same compound?
Answer: Its value is 3.32 ng/g.

Question: And the “Brain Detected Conc.” value ([2]; 1 h, brain homogenate 1:3, Group 1, Group 2, LLOQ 2 ng/g, 20 mg/kg)?
Answer: Its value is 4.83 ng/mL.

Question: What about the “Brain Actual Conc.” value ([2]; 1 h, detected value multiplied by 4, Group 1, Group 2, 20 mg/kg) of the same compound?
Answer: The value was 19.3 ng/g.

Question: What about the “Brain Detected Conc.” value ([2]; 8 h, brain homogenate 1:3, Group 1, Group 2, LLOQ 2 ng/g, 20 mg/kg) of the same compound?
Answer: Its value is 0.799 ng/mL.

Question: And the “Brain Actual Conc.” value ([2]; 8 h, detected value multiplied by 4, Group 1, Group 2, 20 mg/kg)?
Answer: The value was 3.20 ng/g.

Question: What about the “Brain Detected Conc.” value ([2]; 12 h, brain homogenate 1:3, Group 1, Group 2, LLOQ 2 ng/g) of the same compound?
Answer: The value was “BLOQ”.

Question: What about the “Brain Detected Conc.” value ([2]; 16 h, brain homogenate 1:3, Group 1, Group 2, LLOQ 2 ng/g) of the same compound?
Answer: Its value is “BLOQ”.

Question: What about the “Brain Detected Conc.” value ([2]; 20 h, brain homogenate 1:3, Group 1, Group 2, LLOQ 2 ng/g) of the same compound?
Answer: The value was “BLOQ”.

Question: And the “Brain Detected Conc.” value ([2]; 24 h, brain homogenate 1:3, Group 1, Group 2, LLOQ 2 ng/g)?
Answer: Its value is “BLOQ”.

Question: And the concentration at 0.25 h ([3]; Wistar, rat, plasma, po, 20 mg/kg, 0.25 h, individual rats (Rat 10, 11, 12), read-out: Plasma Conc.)?
Answer: Its concentration at 0.25 h is 1.29 ng/mL.

Question: And the concentration at 0.25 h ([3]; Wistar, rat, plasma, po, 20 mg/kg, 0.25 h, mean of rats, read-out: Plasma Conc. Mean)?
Answer: Its concentration at 0.25 h is 1.34 ng/mL.

Question: And the concentration at 0.5 h ([3]; Wistar, rat, plasma, po, 20 mg/kg, 0.5 h, mean of rats, read-out: Plasma Conc. Mean)?
Answer: The concentration at 0.5 h was 3.94 ng/mL.

Question: And the concentration at 1 h ([3]; Wistar, rat, plasma, po, 20 mg/kg, 1 h, individual rats (Rat 10, 11, 12), read-out: Plasma Conc.)?
Answer: Its concentration at 1 h is 7.34 ng/mL.

Question: And the concentration at 1 h ([3]; Wistar, rat, plasma, po, 20 mg/kg, 1 h, mean of rats, read-out: Plasma Conc. Mean)?
Answer: The concentration at 1 h was 8.19 ng/mL.

Question: And the concentration at 2 h ([3]; Wistar, rat, plasma, po, 20 mg/kg, 2 h, individual rats (Rat 10, 11, 12), read-out: Plasma Conc.)?
Answer: The concentration at 2 h was 15.1 ng/mL.

Question: What about the concentration at 2 h ([3]; Wistar, rat, plasma, po, 20 mg/kg, 2 h, mean of rats, read-out: Plasma Conc. Mean) of the same compound?
Answer: Its concentration at 2 h is 15.8 ng/mL.

Question: And the concentration at 4 h ([3]; Wistar, rat, plasma, po, 20 mg/kg, 4 h, mean of rats, read-out: Plasma Conc. Mean)?
Answer: The concentration at 4 h was 8.8 ng/mL.

Question: What about the concentration at 6 h ([3]; Wistar, rat, plasma, po, 20 mg/kg, 6 h, individual rats (Rat 10, 11, 12), read-out: Plasma Conc.) of the same compound?
Answer: Its concentration at 6 h is 3.14 ng/mL.

Question: What about the concentration at 6 h ([3]; Wistar, rat, plasma, po, 20 mg/kg, 6 h, mean of rats, read-out: Plasma Conc. Mean) of the same compound?
Answer: The concentration at 6 h was 2.46 ng/mL.

Question: What about the concentration at 8 h ([3]; Wistar, rat, plasma, po, 20 mg/kg, 8 h, individual rats (Rat 10, 11, 12), read-out: Plasma Conc.) of the same compound?
Answer: Its concentration at 8 h is 0.822 ng/mL.

Question: And the concentration at 8 h ([3]; Wistar, rat, plasma, po, 20 mg/kg, 8 h, mean of rats, read-out: Plasma Conc. Mean)?
Answer: The concentration at 8 h was 0.788 ng/mL.

Question: And the “Plasma Conc.” value ([3]; 0.25 h, individual rats (Rat 10, 11, 12), 20 mg/kg)?
Answer: Its value is “BLOQ and 1.38 ng/mL”.

Question: What about the “Plasma Conc.” value ([3]; 0.5 h, individual rats (Rat 10, 11, 12), 20 mg/kg) of the same compound?
Answer: The value was 1.52 ng/mL and 5.77 ng/mL and 4.54 ng/mL.

Question: What about the “Plasma Conc.” value ([3]; 1 h, individual rats (Rat 10, 11, 12), 20 mg/kg) of the same compound?
Answer: Its value is 8.39 ng/mL and 8.83 ng/mL.

Question: And the “Plasma Conc.” value ([3]; 2 h, individual rats (Rat 10, 11, 12), 20 mg/kg)?
Answer: Its value is 16.9 ng/mL and 15.4 ng/mL.

Question: What about the “Plasma Conc.” value ([3]; 4 h, individual rats (Rat 10, 11, 12), 20 mg/kg) of the same compound?
Answer: The value was 6.92 ng/mL and 6.35 ng/mL and 13.2 ng/mL.

Question: What about the “Plasma Conc.” value ([3]; 6 h, individual rats (Rat 10, 11, 12), 20 mg/kg) of the same compound?
Answer: Its value is 1.78 ng/mL and 2.47 ng/mL.

Question: What about the “Plasma Conc.” value ([3]; 8 h, individual rats (Rat 10, 11, 12), 20 mg/kg) of the same compound?
Answer: Its value is 0.654 ng/mL and 0.888 ng/mL.

Question: What about the “Plasma Conc.” value ([3]; 12 h, individual rats (Rat 10, 11, 12)) of the same compound?
Answer: The value was “BLOQ”.

Question: What about the “Plasma Conc.” value ([3]; 16 h, individual rats (Rat 10, 11, 12)) of the same compound?
Answer: Its value is “BLOQ”.

Question: What about the “Plasma Conc.” value ([3]; 20 h, individual rats (Rat 10, 11, 12)) of the same compound?
Answer: The value was “BLOQ”.

Question: What about the “Plasma Conc.” value ([3]; 24 h, individual rats (Rat 10, 11, 12)) of the same compound?
Answer: The value was “BLOQ”.

Source: patent publication US20220273590A1, “COMPOUNDS FOR PREVENTION AND TREATMENT OF POST-OPERATIVE COGNITIVE DYSFUNCTION” (ABREXA PHARMACEUTICALS, INC., priority 2019, published 2022)
